{
  "source": "the NIST ThermoML archive (doi:10.1021/je060178m)",
  "key": {"[1]": {"conditions": "Crystal; DTA"}, "[2]": {"assay": "Molar enthalpy of transition or fusion", "conditions": "Crystal; DSC"}},
  "note": "Numbers after ± are expanded uncertainties.",
  "data": [
    {"smiles": "NC(=O)c1ccccc1O", "note": "[2-hydroxybenzamide]", "values": [
      {"measurement": "Normal melting temperature", "setting": "[1]", "result": "138.70 ± 1.1", "unit": "°C"},
      {"measurement": "Molar enthalpy of transition or fusion", "setting": "[2]", "result": "6.93 ± 0.191", "unit": "kcal/mol"}
    ]}
  ]
}
